Measured values as given in PMC5452050 (ACS Omega, 2017).
Values after ≈ are worked out from the molar mass of the structure shown.

Tests used:
[1] = target: KIT (Homo sapiens, UniProt P10721); experiment: Kd determination; type: binding
[2] = target: CLK4 (Homo sapiens, UniProt Q9HAZ1); experiment: Kd determination; type: binding
[3] = target: PIP5K1C (Homo sapiens, UniProt O60331); experiment: Kd determination; type: binding
[4] = target: CLK1 (Homo sapiens, UniProt P49759); experiment: Kd determination; type: binding
Sequence of CLK1 (P49759 whole entry): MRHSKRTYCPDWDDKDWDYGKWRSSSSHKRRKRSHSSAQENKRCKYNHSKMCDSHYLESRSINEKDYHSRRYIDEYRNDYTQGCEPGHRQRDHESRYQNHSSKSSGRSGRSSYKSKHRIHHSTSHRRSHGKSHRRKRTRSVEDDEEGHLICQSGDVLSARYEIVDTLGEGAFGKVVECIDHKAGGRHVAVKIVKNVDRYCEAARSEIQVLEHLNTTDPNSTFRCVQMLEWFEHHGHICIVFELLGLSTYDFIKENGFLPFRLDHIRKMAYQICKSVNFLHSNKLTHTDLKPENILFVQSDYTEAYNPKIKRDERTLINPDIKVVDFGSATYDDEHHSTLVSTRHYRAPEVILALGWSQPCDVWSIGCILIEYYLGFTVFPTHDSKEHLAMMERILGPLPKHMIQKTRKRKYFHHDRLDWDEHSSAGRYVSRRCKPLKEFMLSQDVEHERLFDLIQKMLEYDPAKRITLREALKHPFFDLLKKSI

[5] = target: PDGFRB (Homo sapiens, UniProt P09619); experiment: Kd determination; type: binding
Sequence of PDGFRB (P09619 33-1106): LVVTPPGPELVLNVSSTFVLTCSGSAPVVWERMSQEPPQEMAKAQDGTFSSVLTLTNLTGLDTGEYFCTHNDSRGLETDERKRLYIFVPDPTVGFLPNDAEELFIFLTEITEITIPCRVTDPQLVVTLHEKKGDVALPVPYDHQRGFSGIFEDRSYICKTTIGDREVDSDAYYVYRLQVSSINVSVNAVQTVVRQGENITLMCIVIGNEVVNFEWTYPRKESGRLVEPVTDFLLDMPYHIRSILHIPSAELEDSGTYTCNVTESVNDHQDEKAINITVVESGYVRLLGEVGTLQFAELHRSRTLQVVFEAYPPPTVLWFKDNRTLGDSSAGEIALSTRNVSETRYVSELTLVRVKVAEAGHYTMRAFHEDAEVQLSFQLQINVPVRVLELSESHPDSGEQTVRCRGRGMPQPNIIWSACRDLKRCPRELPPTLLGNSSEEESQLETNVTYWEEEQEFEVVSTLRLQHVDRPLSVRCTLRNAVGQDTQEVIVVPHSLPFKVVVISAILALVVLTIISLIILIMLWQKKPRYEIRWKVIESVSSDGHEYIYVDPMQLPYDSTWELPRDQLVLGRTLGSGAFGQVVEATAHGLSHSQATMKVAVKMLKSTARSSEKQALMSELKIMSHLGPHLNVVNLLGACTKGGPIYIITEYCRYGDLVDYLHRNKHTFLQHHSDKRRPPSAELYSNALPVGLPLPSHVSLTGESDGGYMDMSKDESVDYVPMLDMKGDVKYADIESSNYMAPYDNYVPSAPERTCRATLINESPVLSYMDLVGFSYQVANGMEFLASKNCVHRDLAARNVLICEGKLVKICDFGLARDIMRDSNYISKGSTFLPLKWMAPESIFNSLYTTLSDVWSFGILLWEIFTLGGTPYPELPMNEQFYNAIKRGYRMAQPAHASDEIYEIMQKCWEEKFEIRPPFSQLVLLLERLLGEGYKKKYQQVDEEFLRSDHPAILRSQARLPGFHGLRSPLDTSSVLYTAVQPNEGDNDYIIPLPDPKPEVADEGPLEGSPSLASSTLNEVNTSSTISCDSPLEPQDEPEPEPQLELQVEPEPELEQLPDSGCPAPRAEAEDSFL

[6] = Solubility; type: physicochemical; details: buffer, pH 7.4, aqueous buffer, kinetic from dmso stock
[7] = target: T1, FLT3 (Homo sapiens, UniProt P36888); experiment: Kd determination; type: binding
T1 sequence (P36888 27-993): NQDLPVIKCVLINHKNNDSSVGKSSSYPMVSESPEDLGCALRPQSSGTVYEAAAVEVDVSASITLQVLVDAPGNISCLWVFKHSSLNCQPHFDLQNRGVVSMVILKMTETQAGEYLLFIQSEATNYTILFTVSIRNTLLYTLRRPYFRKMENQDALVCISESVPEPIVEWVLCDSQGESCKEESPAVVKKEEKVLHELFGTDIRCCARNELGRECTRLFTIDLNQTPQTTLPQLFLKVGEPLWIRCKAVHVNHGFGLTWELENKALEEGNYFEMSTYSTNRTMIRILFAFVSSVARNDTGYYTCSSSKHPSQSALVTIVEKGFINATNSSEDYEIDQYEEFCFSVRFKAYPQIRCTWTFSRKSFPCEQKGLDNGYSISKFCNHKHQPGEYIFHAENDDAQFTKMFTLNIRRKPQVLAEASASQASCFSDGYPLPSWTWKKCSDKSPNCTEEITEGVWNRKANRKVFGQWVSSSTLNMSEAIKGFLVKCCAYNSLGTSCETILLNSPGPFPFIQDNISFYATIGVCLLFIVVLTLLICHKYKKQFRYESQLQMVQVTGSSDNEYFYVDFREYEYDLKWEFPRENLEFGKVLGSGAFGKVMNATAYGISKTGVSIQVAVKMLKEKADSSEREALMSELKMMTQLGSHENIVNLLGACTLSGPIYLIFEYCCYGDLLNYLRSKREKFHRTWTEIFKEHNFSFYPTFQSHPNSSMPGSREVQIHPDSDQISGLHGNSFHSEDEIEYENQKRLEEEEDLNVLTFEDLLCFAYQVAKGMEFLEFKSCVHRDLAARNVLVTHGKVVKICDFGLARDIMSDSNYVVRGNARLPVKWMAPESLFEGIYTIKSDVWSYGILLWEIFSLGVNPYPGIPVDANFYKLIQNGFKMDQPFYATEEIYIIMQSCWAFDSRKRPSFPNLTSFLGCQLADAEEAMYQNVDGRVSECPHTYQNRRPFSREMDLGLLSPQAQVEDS

[8] = Liver microsomal stability; details: female, CD-1, mouse, liver microsomes, pH 7.4
[9] = target: PIK4CB (Homo sapiens, UniProt Q9UBF8); experiment: Kd determination; type: binding
Sequence of PIK4CB (Q9UBF8 whole entry): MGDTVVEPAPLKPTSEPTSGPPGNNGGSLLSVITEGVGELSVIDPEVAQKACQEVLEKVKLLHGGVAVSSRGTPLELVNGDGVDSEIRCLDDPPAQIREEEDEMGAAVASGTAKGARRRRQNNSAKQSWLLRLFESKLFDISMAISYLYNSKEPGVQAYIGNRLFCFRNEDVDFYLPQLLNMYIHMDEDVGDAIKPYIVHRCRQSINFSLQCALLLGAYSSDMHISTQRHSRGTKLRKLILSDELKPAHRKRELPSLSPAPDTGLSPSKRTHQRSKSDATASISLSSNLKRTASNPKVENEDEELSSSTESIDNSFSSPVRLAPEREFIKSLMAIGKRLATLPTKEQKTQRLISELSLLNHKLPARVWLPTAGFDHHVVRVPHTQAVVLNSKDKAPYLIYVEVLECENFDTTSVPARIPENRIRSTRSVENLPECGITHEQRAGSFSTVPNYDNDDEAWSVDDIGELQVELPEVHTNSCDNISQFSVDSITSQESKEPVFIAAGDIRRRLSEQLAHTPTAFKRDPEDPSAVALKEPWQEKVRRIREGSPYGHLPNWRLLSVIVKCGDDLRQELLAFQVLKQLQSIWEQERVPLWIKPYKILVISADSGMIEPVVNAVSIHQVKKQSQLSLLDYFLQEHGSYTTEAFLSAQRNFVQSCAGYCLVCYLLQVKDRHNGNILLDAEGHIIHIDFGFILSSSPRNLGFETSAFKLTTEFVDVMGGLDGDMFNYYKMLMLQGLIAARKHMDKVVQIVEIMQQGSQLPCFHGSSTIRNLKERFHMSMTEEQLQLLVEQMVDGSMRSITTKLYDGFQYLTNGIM

[10] = Liver microsomal stability; details: both, human, liver microsomes, pH 7.4
[11] = target: T2, recombinant human FLT3 (571–993) (Homo sapiens, UniProt P36888); experiment: biochemical; type: biochemical
T2 sequence (P36888 571-993): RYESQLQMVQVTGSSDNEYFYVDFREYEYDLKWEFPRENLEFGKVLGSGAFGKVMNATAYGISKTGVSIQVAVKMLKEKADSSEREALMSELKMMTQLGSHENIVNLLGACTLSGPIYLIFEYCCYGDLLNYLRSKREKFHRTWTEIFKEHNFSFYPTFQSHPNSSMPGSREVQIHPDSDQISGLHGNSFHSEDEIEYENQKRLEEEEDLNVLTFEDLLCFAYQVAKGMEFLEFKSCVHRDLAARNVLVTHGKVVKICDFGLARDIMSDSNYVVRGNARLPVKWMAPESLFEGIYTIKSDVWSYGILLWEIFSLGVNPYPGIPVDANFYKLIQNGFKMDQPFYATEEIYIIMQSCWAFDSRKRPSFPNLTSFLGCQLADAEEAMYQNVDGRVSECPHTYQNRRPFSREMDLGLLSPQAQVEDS

[12] = Liver microsomal stability; details: rat, liver microsomes, pH 7.4
[13] = target: NEK10 (Homo sapiens, UniProt Q6ZWH5); experiment: Kd determination; type: binding
Sequence of NEK10 (Q6ZWH5 whole entry): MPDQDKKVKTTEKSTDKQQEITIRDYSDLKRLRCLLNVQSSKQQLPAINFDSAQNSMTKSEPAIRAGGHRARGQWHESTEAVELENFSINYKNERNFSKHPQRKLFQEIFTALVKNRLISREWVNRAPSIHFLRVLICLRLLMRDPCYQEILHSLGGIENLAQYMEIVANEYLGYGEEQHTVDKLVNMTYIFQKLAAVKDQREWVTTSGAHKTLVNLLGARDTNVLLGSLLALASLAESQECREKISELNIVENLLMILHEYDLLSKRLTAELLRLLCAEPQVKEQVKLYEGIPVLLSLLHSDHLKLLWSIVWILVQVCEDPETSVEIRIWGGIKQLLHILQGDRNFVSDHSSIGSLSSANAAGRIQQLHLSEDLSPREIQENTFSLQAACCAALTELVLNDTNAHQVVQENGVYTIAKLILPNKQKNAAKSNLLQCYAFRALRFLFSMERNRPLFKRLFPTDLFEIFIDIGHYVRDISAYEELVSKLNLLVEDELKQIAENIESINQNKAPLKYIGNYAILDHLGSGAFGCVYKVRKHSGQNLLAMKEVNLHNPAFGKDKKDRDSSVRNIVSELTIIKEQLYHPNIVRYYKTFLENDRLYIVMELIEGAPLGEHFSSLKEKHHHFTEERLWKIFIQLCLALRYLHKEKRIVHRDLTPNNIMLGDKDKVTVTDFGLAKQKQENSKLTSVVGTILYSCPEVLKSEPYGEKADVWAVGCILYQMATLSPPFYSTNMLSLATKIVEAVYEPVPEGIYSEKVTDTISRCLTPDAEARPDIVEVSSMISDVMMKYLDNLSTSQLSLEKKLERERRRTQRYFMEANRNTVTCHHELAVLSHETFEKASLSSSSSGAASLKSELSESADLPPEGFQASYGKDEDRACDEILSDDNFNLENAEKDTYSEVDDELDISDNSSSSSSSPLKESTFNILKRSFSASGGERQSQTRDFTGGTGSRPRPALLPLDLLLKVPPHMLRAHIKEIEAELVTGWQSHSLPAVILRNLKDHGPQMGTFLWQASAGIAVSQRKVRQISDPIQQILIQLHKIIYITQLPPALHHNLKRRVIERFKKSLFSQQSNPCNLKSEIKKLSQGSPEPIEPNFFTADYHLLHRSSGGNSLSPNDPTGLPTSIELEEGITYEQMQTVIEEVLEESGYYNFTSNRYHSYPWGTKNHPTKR

[14] = Liver microsomal stability; details: dog, liver microsomes, pH 7.4
[15] = target: IRAK1 (Homo sapiens, UniProt P51617); experiment: Kd determination; type: binding
[16] = target: BLK (Homo sapiens, UniProt P51451); experiment: Kd determination; type: binding
[17] = target: JAK2 (JH1 domain-catalytic) (Homo sapiens, UniProt O60674); experiment: Kd determination; type: binding
Sequence of JAK2 (JH1 domain-catalytic) (O60674 849-1124 limits assumed): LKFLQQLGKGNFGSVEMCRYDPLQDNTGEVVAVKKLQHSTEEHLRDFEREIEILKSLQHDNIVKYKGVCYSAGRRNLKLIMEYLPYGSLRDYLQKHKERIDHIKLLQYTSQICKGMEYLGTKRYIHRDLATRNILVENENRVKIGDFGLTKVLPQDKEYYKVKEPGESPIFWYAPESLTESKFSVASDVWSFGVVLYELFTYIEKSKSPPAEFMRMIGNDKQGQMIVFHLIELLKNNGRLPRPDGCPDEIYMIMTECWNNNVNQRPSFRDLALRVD

[18] = target: CSF1R (Homo sapiens, UniProt P07333); experiment: Kd determination; type: binding
[19] = Plasma stability; type: in vitro ADME; details: mouse
[20] = target: EPHB6 (Homo sapiens, UniProt O15197); experiment: Kd determination; type: binding
[21] = test system: FLT3-ITD phosphorylation; experiment: Western blot of FLT3 signaling in MOLM13^FLT3-ITD cells; type: cell-based; details: 1 h, read-out: FLT3 IC50 estimated from loss of FLT3-ITD phosphorylation

Sequence of PIP5K1C (O60331 whole entry): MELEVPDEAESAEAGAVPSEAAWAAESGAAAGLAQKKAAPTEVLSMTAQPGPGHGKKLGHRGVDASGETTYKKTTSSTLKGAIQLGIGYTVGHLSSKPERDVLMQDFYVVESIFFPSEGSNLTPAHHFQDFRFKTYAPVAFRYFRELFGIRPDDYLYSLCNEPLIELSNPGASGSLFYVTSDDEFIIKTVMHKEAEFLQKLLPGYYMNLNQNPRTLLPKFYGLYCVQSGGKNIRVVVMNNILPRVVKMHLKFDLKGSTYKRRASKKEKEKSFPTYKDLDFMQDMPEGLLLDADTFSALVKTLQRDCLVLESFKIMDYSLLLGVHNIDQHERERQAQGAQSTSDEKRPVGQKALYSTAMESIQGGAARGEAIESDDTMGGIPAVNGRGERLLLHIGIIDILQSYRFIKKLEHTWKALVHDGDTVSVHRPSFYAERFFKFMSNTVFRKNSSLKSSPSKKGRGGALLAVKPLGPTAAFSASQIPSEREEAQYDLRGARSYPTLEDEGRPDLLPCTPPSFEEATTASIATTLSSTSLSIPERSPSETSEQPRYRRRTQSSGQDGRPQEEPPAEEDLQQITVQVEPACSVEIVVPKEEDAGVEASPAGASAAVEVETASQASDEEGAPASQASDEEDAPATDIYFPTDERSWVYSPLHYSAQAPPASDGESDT
Sequence of CLK4 (Q9HAZ1 whole entry): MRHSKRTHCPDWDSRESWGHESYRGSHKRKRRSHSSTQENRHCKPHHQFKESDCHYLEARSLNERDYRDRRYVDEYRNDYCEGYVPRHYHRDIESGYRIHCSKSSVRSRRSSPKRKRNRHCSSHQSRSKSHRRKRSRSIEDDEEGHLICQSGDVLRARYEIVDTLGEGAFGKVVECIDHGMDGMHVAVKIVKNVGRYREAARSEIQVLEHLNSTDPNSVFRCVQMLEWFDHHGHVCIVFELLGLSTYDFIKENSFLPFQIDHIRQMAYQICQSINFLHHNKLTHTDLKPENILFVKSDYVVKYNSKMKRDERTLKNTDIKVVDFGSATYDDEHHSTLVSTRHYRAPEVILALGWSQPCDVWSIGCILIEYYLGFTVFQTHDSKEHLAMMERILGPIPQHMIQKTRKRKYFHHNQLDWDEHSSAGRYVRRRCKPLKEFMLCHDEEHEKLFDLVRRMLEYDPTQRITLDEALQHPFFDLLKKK

c1cncc(-c2cccc(Nc3nccc(NC4CCCCC4)n3)c2)c1 [Compound 1, N^4-Cyclohexyl-N^2-(3-(pyridin-3-yl)phenyl)pyrimidine-2,4-diamine]
Kd [1]: 1500 nM
Kd [2]: 690 nM
Kd [3]: 610 nM
Kd [4]: 430 nM
Kd [5]: 120 nM
solubility at 18 h [6]: 0.4 ± 0.9 µM (≈ 0.138 µg/mL)
Kd [7]: 61 nM
CLint scaled at 4 µM [8]: 26.5 ± 1.6 mL/min/kg
half-life at 4 µM [8]: 15.6 ± 1.8 min
Kd [9]: 370 nM
CLint scaled at 4 µM [10]: 26.6 ± 2.2 mL/min/kg
half-life at 4 µM [10]: 48 ± 6 min
IC50 ([11]; FLT3 IC50, 100 μM ATP): < 6 nM
IC50 ([11]; FLT3 IC50, 2.5 mM ATP): 116 nM
CLint scaled at 4 µM [12]: 44.9 ± 1.4 mL/min/kg
half-life at 4 µM [12]: 62.4 ± 1.8 min
Kd [13]: 410 nM
CLint scaled at 4 µM [14]: 49.4 ± 3.9 mL/min/kg
half-life at 4 µM [14]: 42 ± 6 min
Kd [15]: 1500 nM
Kd [16]: 3900 nM

CC(C)Nc1ccnc(Nc2cccc(-c3cccnc3)c2)n1 [Compound 5e, N^4-Isopropyl-N^2-(3-(pyridin-3-yl)phenyl)pyrimidine-2,4-diamine]
Kd [17]: 480 nM
Kd [2]: 1100 nM
Kd [3]: 1300 nM
Kd [4]: 260 nM
Kd [18]: 460 nM
plasma stability [19]: >48 h
Kd [20]: 440 nM
Kd [5]: 28 nM
solubility at 18 h [6]: 26.4 ± 17 µM (≈ 8.06 µg/mL)
Kd [7]: 3.6 nM
fold more potent against FLT3 than PDGFRB and JAK1 JH2 domain (Kd) [7]: approximately 8 fold
CLint scaled at 4 µM [8]: 180 ± 19.4 mL/min/kg
half-life [8]: 12 to 60 min
half-life at 4 µM [8]: 18 ± 1.8 min
Kd [9]: 330 nM
CLint scaled at 4 µM [10]: 10 ± 0.6 mL/min/kg
half-life at 4 µM [10]: 126 ± 6 min
IC50 [21]: 50 to 100 nM
CLint scaled at 4 µM [12]: 41.7 ± 2.7 mL/min/kg
half-life at 4 µM [12]: 66 ± 6 min
Kd [13]: 2000 nM
CLint scaled at 4 µM [14]: 28.2 ± 1.9 mL/min/kg
half-life at 4 µM [14]: 72 ± 6 min

CC(C)Nc1ccnc(Nc2ccccc2-c2ccccc2)n1 [Compound 6a, N^2-([1,1′-Biphenyl]-2-yl)-N^4-isopropylpyrimidine-2,4-diamine]
Kd [7]: > 10000 nM
